pEC50, pIC50: −log10 of the molar value. Activity calls are given as the source filed them. No cut-off for these calls is given here.
Columns and labels:
Rattus norvegicus [1] = assay: Decrease in fed plasma glucose level in Zucker rat sub-chronic fa/fa prediabetic model at 10 mg/kg, po qd for 4 days measured on day 5 relative to control; format: functional; parameters: scale not given: the % may be the effect or the level left
[2] = Tmax in CD-1 mouse at 20 mg/kg administered via oral gavage by LC-MS analysis; format: ADME, organism-based; conditions: in vivo
[3] = AUC (0 to 24 hrs) in Zucker rat sub-chronic fa/fa prediabetic model at 10 mg/kg, po qd for 26 days measured on day 26 post last dose; format: ADME, organism-based; parameters: dose 10 mg/kg, time < 24 hr, route oral; conditions: in vivo
Rattus norvegicus [4] = assay: Toxicity in […] chronic ob/ob model assessed as brown adipose tissue weight at 3 mg/kg, po qd for 31 days measured on day 32 (reference value: 0.59 +/- 0.05 g); format: organism-based; conditions: in vivo, 744 h
Rattus norvegicus [5] = assay: Toxicity in Zucker rat sub-chronic fa/fa prediabetic model assessed as increase in food consumption at 10 mg/kg, po qd during 10 days study; format: organism-based; conditions: in vivo, 240 h
Rattus norvegicus [6] = assay: Toxicity in Zucker rat sub-chronic fa/fa prediabetic model assessed as brown adipose tissue weight at 3 mg/kg, po qd for 31 days measured on day 32 (reference value: 2.1 +/- 0.3 g); format: organism-based; conditions: in vivo, 744 h
Rattus norvegicus [7] = assay: Effect on TNFRSF1B gene expression in epididymal white adipose tissue of Zucker rat sub-chronic fa/fa prediabetic model at 10 mg/kg, po qd for 15 days by microarray analysis relative to control; format: functional
Rattus norvegicus [8] = assay: Toxicity in Zucker rat sub-chronic fa/fa prediabetic model assessed as food intake at 10 mg/kg, po qd for 29 days measured on day 1 to 29 during compound dosing (reference value: 969 +/- 18 g); format: organism-based; conditions: in vivo, 696 h
Rattus norvegicus [9] = assay: Effect on PCCB gene expression in epididymal white adipose tissue of Zucker rat sub-chronic fa/fa prediabetic model at 10 mg/kg, po qd for 15 days by microarray analysis relative to control; format: functional
[10] = Cmax in Zucker rat sub-chronic fa/fa prediabetic model at 1 mg/kg, po qd for 26 days measured on day 26 post last dose; format: ADME, organism-based; parameters: dose 1 mg/kg, route oral; conditions: in vivo
Rattus norvegicus [11] = assay: Toxicity in […] chronic ob/ob model assessed as decrease in epididymal white adipose tissue weight at administered po qd for 31 days measured on day 32; format: organism-based; conditions: in vivo, 744 h
[12] = molecular target: Peroxisome proliferator-activated receptor alpha (Homo sapiens, UniProt Q07869); assay: Agonist activity at recombinant GST-tagged human PPARalpha LBD assessed as fluorescein-labeled coactivator peptide recruitment preincubated with enzyme followed by coactivator addition by LanthaScreen TR-FRET assay
Rattus norvegicus [13] = assay: Toxicity in Zucker rat sub-chronic fa/fa prediabetic model assessed as brown adipose tissue weight at 50 mg/kg, po qd for 31 days measured on day 32 (reference value: 2.1 +/- 0.3 g); format: organism-based; conditions: in vivo, 744 h
[14] = molecular target: Estrogen-related receptor gamma (Homo sapiens, UniProt P62508); assay: Antagonist activity at ERRgamma (unknown origin) assessed as inhibition of co-activator peptide recruitment by TR-FRET assay
[15] = Cmax in Zucker rat sub-chronic fa/fa prediabetic model at 3 mg/kg, po qd for 26 days measured on day 26 post last dose; format: ADME, organism-based; parameters: dose 3 mg/kg, route oral; conditions: in vivo
Rattus norvegicus [16] = assay: Effect on IL36B gene expression in epididymal white adipose tissue of Zucker rat sub-chronic fa/fa prediabetic model at 10 mg/kg, po qd for 15 days by microarray analysis relative to control; format: functional
Rattus norvegicus [17] = assay: Toxicity in […] model assessed as liver weight at 10 mg/kg, po qd for 31 days measured on day 32 (reference value: 2.77 +/- 0.16 g); format: organism-based; conditions: in vivo, 744 h
Rattus norvegicus [18] = assay: Antidiabetic activity in […] model assessed as HbA1C level at 3 mg/kg, po qd for 31 days measured on day 32 post dose (reference value: 5.9 +/- 0.18%); format: functional
Rattus norvegicus [19] = organism: Rattus norvegicus; assay: Toxicity in Zucker rat sub-chronic fa/fa prediabetic model assessed as increase in epididymal white adipose tissue weight during 15 day single dose study; format: organism-based; conditions: in vivo, 360 h
[20] = Half life in CD-1 mouse at 5 mg/kg, iv by LC-MS analysis; format: ADME, organism-based; conditions: in vivo
Rattus norvegicus [21] = assay: Antidiabetic activity in Zucker rat sub-chronic fa/fa prediabetic model assessed as fasting blood glucose level at 3 mg/kg, po qd for 31 days measured on day 29 post dose (reference value: 163 +/- 9.2 mg/dl); format: functional
Rattus norvegicus [22] = assay: Effect on SYNJ2 gene expression in epididymal white adipose tissue of Zucker rat sub-chronic fa/fa prediabetic model at 10 mg/kg, po qd for 15 days by microarray analysis relative to control; format: functional
[23] = Cmax in […] chronic ob/ob model at 10 mg/kg, po qd measured on day 1 post dose; format: ADME, organism-based; parameters: dose 10 mg/kg, route oral; conditions: in vivo
Rattus norvegicus [24] = assay: Toxicity in Zucker rat sub-chronic fa/fa prediabetic model assessed as triglyceride level per gram liver at 1 mg/kg, po qd for 31 days measured on day 32 (reference value: 163.4 +/- 8.3 mg); format: organism-based; conditions: in vivo, 744 h
Rattus norvegicus [25] = assay: Increase in ANGPTL4 mRNA expression in epididymal white adipose tissue of Zucker rat sub-chronic fa/fa prediabetic model at 10 mg/kg, po qd for 15 days by RT-PCR method; format: functional, organism-based
Rattus norvegicus [26] = assay: Toxicity in Zucker rat sub-chronic fa/fa prediabetic model assessed as serum cholesterol level at 1 mg/kg, po qd for 31 days measured on day 32 (reference value: 295 +/- 91 mg/dl); format: organism-based; conditions: in vivo, 744 h
Rattus norvegicus [27] = assay: Effect on IL1RN gene expression in epididymal white adipose tissue of Zucker rat sub-chronic fa/fa prediabetic model at 10 mg/kg, po qd for 15 days by microarray analysis relative to control; format: functional
Rattus norvegicus [28] = assay: Effect on ALDH3B1 gene expression in epididymal white adipose tissue of Zucker rat sub-chronic fa/fa prediabetic model at 10 mg/kg, po qd for 15 days by microarray analysis relative to control; format: functional
[29] = AUC (0 to 24 hrs) in Zucker rat sub-chronic fa/fa prediabetic model at 3 mg/kg, po qd for 26 days measured on day 26 post last dose; format: ADME, organism-based; parameters: time < 24 hr, dose 3 mg/kg, route oral; conditions: in vivo
Rattus norvegicus [30] = assay: Toxicity in […] model assessed as serum AST level at 10 mg/kg, po qd for 31 days measured on day 32 (reference value: 180 +/- 26 U/L); format: organism-based; conditions: in vivo, 744 h
[31] = Cmax in Zucker rat sub-chronic fa/fa prediabetic model at 10 mg/kg, po qd for 26 days measured on day 26 post last dose; format: ADME, organism-based; parameters: dose 10 mg/kg, route oral; conditions: in vivo
Rattus norvegicus [32] = assay: Toxicity in […] chronic ob/ob model assessed as epididymal white adipose tissue weight at 10 mg/kg, po qd for 31 days measured on day 32 (reference value: 3.92 +/- 0.14 g); format: organism-based; conditions: in vivo, 744 h
Rattus norvegicus [33] = assay: Toxicity in […] model assessed as serum ALT level at 10 mg/kg, po qd for 31 days measured on day 32 (reference value: 127 +/- 9 U/L); format: organism-based; conditions: in vivo, 744 h
Rattus norvegicus [34] = assay: Toxicity in Zucker rat sub-chronic fa/fa prediabetic model assessed as serum ALT level at 10 mg/kg, po qd for 31 days measured on day 32 (reference value: 151 +/- 23 U/L); format: organism-based; conditions: in vivo, 744 h

Chain of Peroxisome proliferator-activated receptor alpha (Q07869 whole entry, the tested form may be a part): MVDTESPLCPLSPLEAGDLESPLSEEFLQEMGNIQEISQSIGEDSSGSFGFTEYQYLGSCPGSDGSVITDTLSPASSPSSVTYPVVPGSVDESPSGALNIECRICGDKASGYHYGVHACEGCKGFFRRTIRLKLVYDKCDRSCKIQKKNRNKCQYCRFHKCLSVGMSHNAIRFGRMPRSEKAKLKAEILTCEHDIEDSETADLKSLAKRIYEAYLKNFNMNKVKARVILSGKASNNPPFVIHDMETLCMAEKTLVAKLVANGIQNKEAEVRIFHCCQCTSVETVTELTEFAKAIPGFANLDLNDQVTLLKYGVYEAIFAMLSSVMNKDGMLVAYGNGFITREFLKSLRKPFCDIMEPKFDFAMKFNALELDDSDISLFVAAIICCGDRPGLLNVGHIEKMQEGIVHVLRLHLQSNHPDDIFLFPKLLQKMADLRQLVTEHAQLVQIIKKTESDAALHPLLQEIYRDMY
Chain of Estrogen-related receptor gamma (P62508 whole entry): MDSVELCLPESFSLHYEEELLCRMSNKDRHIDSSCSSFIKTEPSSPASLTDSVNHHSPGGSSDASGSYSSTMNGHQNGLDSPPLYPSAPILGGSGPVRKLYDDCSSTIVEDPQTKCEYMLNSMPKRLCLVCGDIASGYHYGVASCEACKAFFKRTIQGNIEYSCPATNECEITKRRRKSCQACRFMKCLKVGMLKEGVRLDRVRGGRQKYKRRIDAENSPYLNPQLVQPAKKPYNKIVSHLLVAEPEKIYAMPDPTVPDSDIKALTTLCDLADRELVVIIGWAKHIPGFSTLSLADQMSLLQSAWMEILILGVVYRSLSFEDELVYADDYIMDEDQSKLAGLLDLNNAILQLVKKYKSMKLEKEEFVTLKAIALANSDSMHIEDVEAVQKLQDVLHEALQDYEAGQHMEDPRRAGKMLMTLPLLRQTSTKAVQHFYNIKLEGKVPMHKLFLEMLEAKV

In the case of `CN1CC[C@@H](N2C(=O)S/C(=C\c3ccc4c(cnn4Cc4ccc(Cl)cc4C(F)(F)F)c3)C2=O)[C@H](F)C1`, the Activity (Rattus norvegicus [1]) was -32%, the Tmax [2] was 1.5 h and the AUC at 24 h [3] was 23900 ng·h/mL. For the same compound, the Activity (Rattus norvegicus [4]) was 0.61 g, the Activity (Rattus norvegicus [5]) was “Non-Toxic” and the Activity (Rattus norvegicus [6]) was 4.4 g. For the same compound, the “fold change (FC)” value (Rattus norvegicus [7]) was -1.505, the Activity (Rattus norvegicus [8]) was 1060 g and the “fold change (FC)” value (Rattus norvegicus [9]) was -1.413. For the same compound, the Cmax [10] was 316 ng/mL, the Activity (Rattus norvegicus [11]) was “Dose-dependent effect” and the pEC50 [12] was less than 5.00. It also gave an Activity (Rattus norvegicus [13]) of 10.3 g, a pIC50 [14] of less than 5.00 and a Cmax [15] of 1220 ng/mL. For the same compound, the “fold change (FC)” value (Rattus norvegicus [16]) was -1.232, the Activity (Rattus norvegicus [17]) was 2.67 g and the Activity (Rattus norvegicus [18]) was 5.7%. For the same compound, the Activity (Rattus norvegicus [19]) was “Non-Toxic”, the half-life [20] was 11.8 h and the Activity (Rattus norvegicus [21]) was 118 mg/dL. For the same compound, the “fold change (FC)” value (Rattus norvegicus [22]) was -1.663, the Cmax [23] was 520 ng/mL and the Activity (Rattus norvegicus [24]) was 122 mg. The Activity (Rattus norvegicus [25]) was “Active”, the Activity (Rattus norvegicus [26]) was 328 mg/dL and the “fold change (FC)” value (Rattus norvegicus [27]) was -1.209. The “fold change (FC)” value (Rattus norvegicus [28]) was -1.554, the AUC at 24 h [29] was 10800 ng·h/mL and the Activity (Rattus norvegicus [30]) was 171 U/L. It also gave a Cmax [31] of 2900 ng/mL, an Activity (Rattus norvegicus [32]) of 3.29 g and an Activity (Rattus norvegicus [33]) of 135 U/L. The Activity (Rattus norvegicus [34]) was 122 U/L.

Reference: ChEMBL document CHEMBL4130359, “Indazole-based ligands for estrogen-related receptor α as potential anti-diabetic agents” (Eur J Med Chem, 2017)
